Results: patent publication US6589949B1, “3-oxo-2,1-benzisoxazol-1(3H)-carboxamides for treatment of CNS diseases” (Bayer Aktiengesellschaft, priority 1999, dated 2003)

Columns and labels:
[1] = molecular target: T1, acylpeptide hydrolase (ACPH) (Rattus norvegicus, UniProt P13676); test: In vitro determination of the inhibition of ACPH; assay type: biochemical; conditions: rat brain homogenate; substrate 100 μM N-acetyl-methionyl-aminomethyl-coumarin; 30 min preincubation, 30 min reaction
T1 construct: 50 μl of brain homogenate and 100 μM N-acetyl-methionyl-aminomethyl-coumarin as the enzyme substrate; from tissue; host or cells: rat brain homogenate
T1 sequence (P13676 1-732): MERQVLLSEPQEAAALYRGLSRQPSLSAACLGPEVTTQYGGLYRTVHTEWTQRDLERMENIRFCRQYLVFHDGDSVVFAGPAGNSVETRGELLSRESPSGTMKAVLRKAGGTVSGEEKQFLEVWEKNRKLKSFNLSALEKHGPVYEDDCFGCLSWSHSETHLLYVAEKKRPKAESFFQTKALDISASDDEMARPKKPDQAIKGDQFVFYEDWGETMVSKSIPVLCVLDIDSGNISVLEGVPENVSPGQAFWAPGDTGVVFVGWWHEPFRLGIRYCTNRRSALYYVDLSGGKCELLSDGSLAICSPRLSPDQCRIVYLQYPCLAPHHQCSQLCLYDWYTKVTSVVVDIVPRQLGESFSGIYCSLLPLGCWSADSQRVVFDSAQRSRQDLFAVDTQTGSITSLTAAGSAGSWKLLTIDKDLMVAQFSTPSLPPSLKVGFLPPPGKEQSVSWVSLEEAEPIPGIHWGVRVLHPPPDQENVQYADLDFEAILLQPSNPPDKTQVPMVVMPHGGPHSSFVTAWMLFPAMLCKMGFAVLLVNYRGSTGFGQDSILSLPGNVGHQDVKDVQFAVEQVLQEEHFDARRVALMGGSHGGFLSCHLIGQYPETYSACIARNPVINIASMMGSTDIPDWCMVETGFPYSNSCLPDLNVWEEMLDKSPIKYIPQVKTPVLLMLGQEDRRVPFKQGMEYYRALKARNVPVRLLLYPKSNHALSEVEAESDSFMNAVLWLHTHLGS
Procedure: In vitro determination of the Inhibition of ACPH
In the standard experiment, rat brains are homogenized in a 10-fold volume (w/v) of 50 mM tris HCl buffer, 1 mM EDTA, 100 mM NaCl, 0.1% BSA, 1 mM DDT, pH 7.2. The protein concentration of the homogenate is adjusted to approximately 5 mg/ml by dilution with buffer. The incubation batch (110 μl) contains 40 μl of buffer, various test concentrations of the test substances to be tested in 10 μl of buffer, 50 μl of brain homogenate and 100 μM N-acetyl-methionyl-aminomethyl-coumarin as the enzyme substrate. Before addition of the substrate, the reaction mixture is preincubated at room temperature for 30 min. The enzyme reaction is started by substrate addition. The reaction time is 30 min. Afterwards, the samples are activated in a fluorimeter at 390 nm and determined quantitatively at 460 nm. The IC50 value is calculated from the enzyme activity in the presence of increasing concentrations of test substance in the test. For the measurement of the ACPH activity, purified enzyme from liver or other organs can also be used and also homogenates of other organs having ACPH activity, such as liver or erythrocytes.

| melting point | IC50 [1] | SMILES |
| --- | --- | --- |
| 153 °C |  | O=C(N1CCOCC1)n1oc(=O)c2cc(Cl)ccc21 [Example 19] |
| 133 °C | 99 nM | O=C(N1CCCC1)n1oc(=O)c2cc(F)c(F)cc21 [Example 7] |
| 52 °C |  | CN(CCCl)C(=O)n1oc(=O)c2cc(Cl)ccc21 |
| 129 °C | 48 nM | Cc1ccc2c(c1)c(=O)on2C(=O)N1CCCC1 [Example 6] |
| 141 °C |  | O=C(N1CCOCC1)n1oc(=O)c2c(F)cccc21 [Example 14] |
| 98 °C |  | O=C(N1CC2CCC2C1)n1oc(=O)c2ccc(Cl)cc21 (centres unmarked) [Example 12] |
| 103 °C |  | O=C(N1CCCC1)n1oc(=O)c2cc(Cl)ccc21 [Example 8] |
| 85 °C |  | O=C(N1CC2CCC2C1)n1oc(=O)c2cc(Cl)ccc21 (centres unmarked) [Example 15] |
| 99 °C |  | O=C(N1CCCC1)n1oc(=O)c2ccccc21 [Example 3] |
| 116 °C |  | O=C(N1CCOCC1)n1oc(=O)c2ccc(Cl)cc21 [Example 10] |
| 163 °C |  | O=C(N1CCC1)n1oc(=O)c2ccccc21 [Example 2] |
| 109 °C | 6 nM | O=C(N1CCCC1)n1oc(=O)c2c(F)cccc21 [Example 4] |

| SMILES | melting point | IC50 [1] |
| --- | --- | --- |
| CN(C)C(=O)n1oc(=O)c2ccccc21 [Example 5] | 93 °C | 18 nM |
